Test results from patent publication US5395842A, “Anti-estrogenic compounds and compositions” (Endorecherche Inc., priority 1991, dated 1995).

What was measured:
[1] = system: 17β-hydroxysteroid dehydrogenase; conditions: Thomas et al., 1983; cited from earlier work
[2] = system: uterine weight in adult female ovariectomized Balb/c mice; assay: inhibition of the estradiol-induced stimulation of uterine weight in adult female ovariectomized Balb/c mice; format: in vivo
Protocol: (§1) EM-142, and/or estradiol contained in ethanol were injected subcutaneously in the appropriate groups in a solution of 0.9% (w/v) sodium chloride and 1% (w/v) gelatin at different concentrations in 0.2 ml for EM-142, twice daily, starting on the day of ovariectomy for a total of 9 injections. Estradiol was injected at the dose of 0.01 μg in 0.2 ml, twice daily, starting on the morning after ovariectomy for a total of 8 injections.
After sacrifice, the uteri were rapidly removed, freed from fat and connective tissue and weighted. Results shown in FIG. 2 are the means±SEM of groups of 9-10 mice.
as §1, with “"EM 139", and/or” for “EM-142, and/or”, “estradiol dissolved” for “estradiol contained”, “concentrations of "EM 139" (as noted along the X axis of FIG. 3). A dosage of” for “concentrations in”, “ml of the foregoing preparation, was administered” for “ml for EM-142,”
After sacrifice, the uteri were rapidly removed, freed from fat and connective tissue and weighed. Results shown in FIG. 3 are the means±SEM of groups of 9-10 mice.

[3] = system: 17β-hydroxysteroid dehydrogenase (17β-HSD); assay: inhibition of 17β-HSD catalyzed conversion of estradiol to estrone (NADH formation at 340 nm); format: biochemical, human; conditions: increasing concentrations; 1 μg 17β-HSD, 5 mM NAD, 20 μM 17β-estradiol, pH 7.5, 25° C., 15 min; FIG. 4
Description: To test the effect of "EM 139" on the inhibition of sex steroid formation, its effect on the 17β-hydroxysteroid dehydrogenase catalyzed conversion of estradiol to estrone was observed. The reaction was followed by monitoring formation of NADH (at 340 nm). The rate of conversion of cofactor NAD to NADH varies directly with the rate of estradiol conversion to estrone. The ability of "EM 139" to inhibit estrone production is indicative of its ability to inhibit the estrogen-forming reverse reaction because both reactions are catalyzed by 17β-hydroxysteroid dehydrogenase (Thomas et al., J. Biol. Chem. 258: 11500-11504, 1983). 17β-hydroxysteroid dehydrogenase (17β-HSD) was purified to homogeneity from human placenta. A reaction vessel was prepared containing 1 μg 17β-HSD, 5 mM NAD, 20 μM 17β-estradiol, and the concentrations of the test compound "EM 139" which are indicated along the X-axis of FIG. 4 in 1.0 ml of a mixture of Tris-HCl (50 mM), EDTA (2 mM), NaN3 (5 mM). The pH was 7.5. The reaction was allowed to proceed at 25° C. for 15 min. Formation of NADH was measured at 340 nm.

[4] = system: rat uterine cytosol estrogen receptor; assay: competition binding on the rat uterine cytosol estrogen receptor with [3H] estradiol; conditions: 25° C., FIG. 1
Protocol: J. Endocrinol. 112: R7-R110) and EM-142 (an antiestrogen having a nonsteroidal nucleus and synthesized in example 1, herein) for the rat uterine cytosol receptor ([…] et al., 1978; J. Steroid Biochem. 9: 1079-1082). EM-142 from example 1 was tested by competition binding on the rat uterine cytosol estrogen receptor with [^3 H] estradiol according to […] et al. (1976) prodecure. […] (incubation was performed at 25° C. for 3 hours).

[5] = system: ZR-75-1 human breast cancer cell line; assay: growth of ZR-75-1 human breast cancer cells; format: cell-based; conditions: for IC50: Homo sapiens, 240 h, 10 days, read-out: half-maximal effectiveness / IC50 on growth of ZR-75-1 cells
Protocol: ZR-75-1 cells (83rd passage) were obtained from the American Type Culture Collection (Rockville, Md.) and routinely cultured in phenol-red free RPMI 1640 supplemented with 1 nM E2, 2 mM L-glutamine, 1 mM sodium pyruvate, 15 mM N-2-hydroxyethyl-piperazine-N'-2-ethanesulfonic acid, 100 IU penicillin/ml, 100 μg streptomycin/ml, and 10% (v/v) fetal bovine serum (Hyclone, Logan, UT) under a humidified atmosphere of 95% air, 5% CO2, at 37° C. All media and medium supplements were purchased from Sigma. Cells were subcultured weekly by treatment with a pancreatic solution containing 0.02% EDTA (w/v). The cell cultures used for the experiments herein described were between passages 89 and 94.
Cells in their logarithmic growth phase were harvested, briefly centrifuged, and resuspended in RPMI 1640. Cells were then plated in triplicate in LIMBRO 24-well plastic culture plates (2 cm^2 /well). Since plating density influences the effect of hormones on ZR-75-1 cell growth, cells were plated at a density of 1×10^4 cells/well. After 72 h, medium was replaced with fresh medium of identical composition containing, in addition, the concentrations of steroids and/or inhibitors (e.g. EM 312 or EM 343) indicated along the X-axis of FIG. 5. Control cultures received the ethanol vehicle only. Cells were then allowed to grow at 37° C. for 10 days with medium changes (of identical composition) every 2 days. In absence of inhibitors, in 0.1 nM estradiol (E2)-containing medium, ZR-75-1 cells have doubling time of about 48 h.
After E2 and/or antiestrogen treatment, cells were harvested by addition of 0.5 ml of a pancreatin solution (Sigma) for 5-10 min at 37° C. before addition of 0.5 ml of RPMI 1640 containing 5% dextran-coated charcoal-fetal bovine serum in order to block enzymatic action. Cell number (0.10-ml aliquot) was determined by measurement of DNA content as previously described (Simard et al., Endocrinology 126: 3223-3231, 1990).

[6] = reported by Saeed et al. and Sharma et al., 1990; cited from earlier work
[7] = system: advanced breast cancer; conditions: H. Mouridsen et al., 1978; cited from earlier work

Which “inhibition of 17β-hydroxysteroid dehydrogenase activity (in words)” value [1] does the source give for `C=C1C[C@H]2[C@@H]3CCc4cc(O)ccc4[C@H]3CC[C@]2(C)[C@H]1O` [16-methylene estradiol] here?
The value was “inhibitors of 17β-hydroxysteroid dehydrogenase activity”.

With `C=C1C[C@H]2[C@@H]3CCc4cc(O)ccc4[C@H]3CC[C@]2(C)C1=O` [16-methylene estrone] as the molecule, how does the “inhibition of 17β-hydroxysteroid dehydrogenase activity (in words)” value [1] read?
Its value is “inhibitors of 17β-hydroxysteroid dehydrogenase activity”.

Which “reduction of estradiol-induced uterine weight gain (in words)” value ([2]; s.c., twice daily, 9 injections, FIG. 3) does the source give for `CCCCN(C)C(=O)CCCCCCCCCC[C@@H]1Cc2cc(O)ccc2[C@H]2CC[C@]3(C)[C@@H](O)[C@H](Cl)C[C@H]3[C@H]12` [EM 139, N-n-butyl-N-methyl-11-(16'α-chloro-3',17'β-dihydroxy-estra-1',3',5'(10') -trien-7' α-yl) undecanamide] here?
The value was “highly effective in reducing estradiol-induced uterine weight gain”.

And the “inhibition of 17β-HSD reaction (in words)” value [3]?
The value was “significantly inhibited the reaction”.

Which “binding potency compared with the antiestrogen ICI 164384 (in words)” value [4] does the source give for `CCCCN(C)C(=O)CCCCCCCCCCC(=C(CC)c1ccc(O)cc1)c1ccc(O)cc1` [EM 142, N-butyl, N-methyl-12,13-Bis(4-hydroxyphenyl)-12-pentadecenoic amide] here?
The value was “more potent”.

And the “times less potent than 17β-estradiol” value [4]?
The value was 3 times.

What about the “inhibitory effect on E2-induced uterine growth (in words)” value ([2]; 0.3 μg, s.c., twice daily, estradiol 0.01 μg, FIG. 2) of the same molecule?
Its value is “significant inhibitory effect”.

And the “reversal of estrogenic action on uterine weight (in words)” value ([2]; 20 μg, s.c., twice daily, estradiol 0.01 μg, FIG. 2)?
The value was “complete reversal of estrogenic action”.

And the “estrogenic effect on uterine weight (in words)” value ([2]; EM-142, agonism on uterine weight)?
The value was “no estrogenic effect on uterine weight”.

Which IC50 ([5]; ZR-75-1 cells, FIG. 5) does the source give for `Oc1ccc(C2=Cc3ccc(O)cc3OC2c2ccc(OCCN3CCCCC3)cc2)cc1` (stereo not shown) [EM 312] here?
The IC50 was 0.843 nM.

What about the “fold by which IC50 is higher than that of EM 343” value ([5]; ZR-75-1 cells, relative to EM 343, FIG. 5) of the same molecule?
The value was 3 -fold.

And the “comparative effect on growth of ZR-75-1 cells vs EM 343 (in words)” value ([5]; comparative testing in the applicant's laboratory)?
The value was “underperformed EM 343”.

And the “antiestrogenic activity (in words)” value [6]?
The value was “antiestrogenic activity”.

What does the source list for `CC1=C(c2ccc(O)cc2)C(c2ccc(OCCN3CCCCC3)cc2)Oc2cc(O)ccc21` (stereo not shown) [EM 343]?
IC50 ([5]; ZR-75-1 cells, FIG. 5): 0.255 nM; cell growth inhibition (in words) ([5]; ZR-75-1 cells, low concentration, FIG. 5): extensive cell growth inhibition

Which “women patients with remission of advanced breast cancer” value [7] does the source give for `CC/C(=C(\c1ccccc1)c1ccc(OCCN(C)C)cc1)c1ccccc1` [Tamoxifen] here?
Its value is “about 30%”.
